Data on five molecules can be found in patent publication US9512152B2, “Phospholipid compound containing unsaturated fatty acid derivative having cyclopropane ring” (NISHIZAKI BIOINFORMATION RESEARCH INSTITUTE, priority 2013, dated 2016).

For experiment [1] the following is noted: induced by scopolamine; non-patent documents 1, 2; cited from earlier work.
For experiment [2] the following is noted: patent document 2; cited from earlier work.
The test system of experiment [3] is 3T3L1-GLUT4myc adipocytes. Put plainly: Analysis of GLUT4 trafficking (cellular membrane transport of GLUT4). In kind it is cell-based. The following applies: 1 μM, 20 min, FIG. 7. The protocol:
3T3L1-GLUT4myc fibroblast strain expressing GLUT4myc was used. The cells are constructed by inserting human c-MYC epitope (14 amino acids) into the first ectodomain. The cells were cultured in Dulbecco's Modified Eagles Medium (DMEM) added with 10% (v/v) bovine serum, penicillin (final concentration, 100 U/ml) and streptomycin (final concentration, 0.1 mg/ml) in a humid environment under 5% CO2 and 95% air at 37° C. When the cells reached confluence (day 0), the medium was exchanged with DMEM added with 10% (v/v) fetal bovine serum (FBS), 1 μM dexamethasone, 0.5 mM 3-isobutyl-methyl-xanthine and 0.1 mg/ml insulin to allow for differentiation from fibroblast into adipocyte. The medium was exchanged with DMEM added with 10% (v/v) FBS on day 3, day 7 and day 11. On day 14, the cells were used for the experiment.
3T3L1-GLUT4myc adipocytes were incubated in Krebs-Ringer-HEPES buffer [136 mM NaCl, 4.7 mM KCl, 1.25 mM CaCl2, 1.25 mM MgSO4 and 20 mM HEPES, pH 7.5] containing 0.2% (w/v) bovine serum albumin and added with 10 mM glucose at 37° C. for 1 hr. The cells were incubated in the presence or absence of insulin, phospholipid or a derivative thereof for 20 min. Then, the cells were homogenized by sonication in an ice-cooled mitochondria buffer containing 1% (v/v) protease inhibitor cocktail [210 mM mannitol, 70 mM sucrose, and 1 mM ethylenediaminetetraacetic acid (EDTA), 10 mM HEPES, pH 7.5]. Sequentially, the homogenate was centrifuged at 4° C. for 5 min at 3,000 rpm. The supernatant was further centrifuged at 4° C. for 15 min at 11,000 rpm. […] The protein concentration of each fraction was measured using BCA protein assay kit (Thermo Fisher Scientific, Waltham, Mass., USA). […] The immunoreactivity was detected using ECL kit (Invitrogen), and visualized using a chemical luminescence detection system (chemiluminescence detection system; GE Healthcare, Piscataway, N.J., USA). The signal density was measured using an image analysis software (Image Gauge software; GE Healthcare).

The test system of the next experiment is synapse transmission. The note with it: patent document 1; cited from earlier work.

As for `CCCCCCCC/C=C\CCCCCCCC(=O)O[C@H](COC(=O)CCCCCCCCCCCCCCC)COP(=O)([O-])OCC[N+](C)(C)C` [1-palmitoyl-2-oleoyl-sn-glycero-3-phosphocholine], the “Improvement of spatial learning disorder and memory disorder” value in experiment [1] is “improve spatial learning disorder and memory disorder induced by scopolamine”.
For `CCCCC/C=C\C/C=C\CCCCCCCC(=O)OC[C@H](COP(=O)([O-])OCC[N+](C)(C)C)OC(=O)CCCCCCC/C=C\C/C=C\CCCCC` [1,2-dilinoleoyl-sn-glycero-3-phosphocholine], in experiment [1], the “Improvement of spatial learning disorder and memory disorder” value was “improve spatial learning disorder and memory disorder induced by scopolamine”.
As for `CCCCC/C=C/C/C=C/CCCCCCCC(=O)OCC(COP(=O)(O)OCCN)OC(=O)CCCCCCC/C=C/C/C=C/CCCCC` (centres unmarked) [dilinoleoyl•phosphatidylethanolamine], the “Cell death induction suppressive activity / endoplasmic reticulum stress suppressive activity” value in experiment [2] is given as “cell death induction suppressive activity, particularly, endoplasmic reticulum stress suppressive activity”.
On to “insulin: insulin, comparison treatment in the GLUT4 trafficking analysis [reference compound]”, for which the “Promotion of cellular membrane transport of GLUT4” value in experiment [3] is on record as “an action to promote cellular membrane transport of GLUT4”.
Take `CCCCCC1CC1CC1CC1CCCCCCCC(=O)O` (centres unmarked) [DCP-LA, 8-[2-(2-Pentyl-cyclopropylmethyl)-cyclopropyl]-octanoic acid]: the “Enhancement of synapse transmission (LTP-like)” value in the experiment with synapse transmission is “can maintain stable LTP (long-teLm potentiation)-like enhancement of synapse transmission”.
